Laboratory results reported in paper PMC5736175, “Nicotinic alpha 7 receptor agonists EVP-6124 and BMS-933043, attenuate scopolamine-induced deficits in visuo-spatial paired associates learning” (PLoS ONE, 2017).
Where “and” joins values, the source holds several entries; their conditions need not be identical. Equal entries are not always repeated. Structures can show the parent of a compound that is named as a salt. Marks after values point to notes of the source that are not given here.

What was measured:
[1] = test system: scopolamine-treated cynomolgus monkeys; assay: Scopolamine-induced impairment of vsPAL task performance, treatment + scopolamine; type: in vivo, cynomolgus monkeys (Macaca Fasicularis); conditions: for scopolamine impairment: difference between vehicle+vehicle and vehicle+scopolamine, % correct eventual: 4-stimuli condition; for Percent Correct on Initial Attempt (SEM), 2 stimuli / Percent Correct on Initial Attempt (SEM), 3 stimuli / Percent Correct on Initial Attempt (SEM), 4 stimuli: Vehicle + Scopolamine; for mean (cohen's d calculations): eventual correct, 4-stimuli
Method: Doses cited refer to the free base form of the compounds. […] All drugs were administered intramuscularly (i.m.) in a dosing volume of 0.1–0.2 ml/kg.
On days when compound testing occurred, approximately half the cohort received one dose and the remainder another dose of the same compound and therefore dose order was staggered between animals. With the exception of EVP-6124, all other compounds were tested in a single dose response study.
Cohen’s d values of >0.2, >0.5 and >0.8 are described using the conventions of small, medium, and large effects, respectively.

cynomolgus monkeys = assay: Scopolamine dose-response on CANTAB vsPAL task performance
From the text: Thirteen experimentally naïve male cynomolgus monkeys (Macaca Fasicularis; 3–5 years of age; 5.0–7.5 kg at the beginning of the study) served as subjects. Subjects were housed in pairs, separated during testing (Monday through Friday) and re-paired after feeding in the afternoon. Subjects were fed standard monkey chow (Harlan Teklad Global 20% protein Primate Diet 2050) in sufficient quantities to ensure normal growth while maintaining sufficient motivation to perform the cognitive testing [30]. Water was continuously available except during behavioral testing. Fresh fruit, toys and foraging devices were routinely provided in the monkey colony rooms.
For behavioral testing subjects were seated comfortably in restraint chairs (Primate Products, Immokalee, FL), and placed in individual, sound attenuated chambers (Med-Associates, St. Albans, VT), equipped with lights, a white noise generator and a monitoring camera. A touch-sensitive computer monitor was within easy reach and session events were controlled by a Monkey CANTAB test station; (Lafayette Instruments, Lafayette, IN) and Whisker Control [45]. Following correct responses, a dispenser delivered 190 mg banana-flavored pellets (Bioserv, Frenchtown PA).
Ten subjects were trained to perform the CANTAB vsPAL test as previously described [38, 46]. Briefly, the test required the animal to associate a stimulus (abstract shape) with a given spatial location on the computer screen (one of the four corners; S1 Fig). Ten trials each of increasing difficulty (2-, 3- or 4- stimuli) were presented. Trials began with the ‘sample phase’ where stimuli are presented and touched sequentially in their respective locations with a 1 sec delay between stimuli. Following 5 sec where the screen was blank, the choice phase began. The same stimulus was presented in all four corners of the screen for all difficulty levels. […] After a 1 sec screen blank another stimulus was presented in all four corners. If the animal touched the correct location for all shapes in the choice phase on the first attempt the trial was recorded as ‘correct on the initial attempt’. […] The same trial could be repeated up to 5 additional times.
If the animal learned the sequence by the 6th attempt, the trial was recorded as ‘eventual correct’, or ‘incorrect’ if not. […] Additional measures were the percent completion (the proportion of trials on which both sample and choice responses were made), and response latency (time from sample onset to the screen touch in the choice phase, averaged across difficulty conditions).
Drug testing was conducted on Mondays and Thursdays. An additional baseline session was conducted on Tuesdays. […] Additional animals were included in later studies as their performance improved.
There was a washout period of at least 2 weeks between studies.
Accuracy measures (i.e. percent initially correct and percent eventually correct) were analyzed with repeated measures analysis of variance (RM-ANOVA) with the two within-subject factors of difficulty (mean of number of stimuli per trial and overall mean) and treatment. Latencies to respond in all choice phases and percent task completed for the entire session were analyzed by one way RM ANOVA. […] Statistical tests were performed using OriginPro v 9.1 (OriginLab Co., Northampton, MA). Missing data were filled with the mean of the respective cell to enable RM ANOVA computation.

[2] = Average Individualized Scopolamine (0.0045-0.0067 mg/kg) + Vehicle, individual animals
[3] = Average Individualized Scopolamine + Vehicle, MEAN of 8 animals
[4] = Average Individualized Scopolamine + Vehicle, group MEAN
[5] = Average Individualized Scopolamine + Vehicle, group MEAN of 6 animals
[6] = EVP DRC 2, Average Individualized Scopolamine + Vehicle, group MEAN of 7 animals
[7] = Scopolamine 0.003 mg/kg, i.m., MEAN
[8] = Scopolamine 0.003 mg/kg, i.m., individual animals
[9] = Scopolamine 0.0056 mg/kg, i.m., MEAN
[10] = Scopolamine 0.0056 mg/kg, i.m., individual animals
[11] = Scopolamine 0.01 mg/kg i.m., MEAN
[12] = Scopolamine 0.01 mg/kg i.m., individual animals

Compound: CN1[C@@H]2C[C@@H](OC(=O)[C@H](CO)c3ccccc3)C[C@H]1[C@@H]1O[C@@H]12 [Scopolamine, Scopolamine HCl]
- scopolamine impairment: difference between vehicle+vehicle and vehicle+scopolamine, % correct eventual ([1]; donepezil study): 49.4%
- scopolamine impairment: difference between vehicle+vehicle and vehicle+scopolamine, % correct eventual ([1]; first EVP-6124 study): 20.5%
- % Completion [1, 2]: 57.3% and 62.4% and 94.5% and 85.3% and 87.0% and 81.6%
- Average Response Latency [1, 2]: 1943.4 ms and 2791.5 ms and 2008.6 ms and 2389.3 ms and 2808.7 ms and 2502.8 ms
- Eventual Correct, 2 Stimuli [1, 2]: 90.0% and 100.0% and 95.0% and 97.5%
- Eventual Correct, 3 Stimuli [1, 2]: 65.7% and 66.7% and 90.0%
- Eventual Correct, 4 Stimuli [1, 2]: 36.7% and 32.2% and 47.1% and 63.3% and 32.5% and 69.2%
- Eventual Correct, Overall Mean % Correct [1, 2]: 66.2% and 66.3% and 73.2% and 84.4% and 71.7% and 85.6%
- Initial Correct, 3 Stimuli [1, 2]: 40.0% and 47.5% and 30.0% and 42.5% and 60.0%
- Initial Correct, 4 Stimuli [1, 2]: 16.7% and 22.5% and 20.0%
- Initial Correct, Overall Mean % Correct [1, 2]: 53.1% and 56.9% and 66.9%
- Initial correct, 2 Stimuli [1, 2]: 60.0% and 95.0% and 70.0% and 87.5%
- Average Response Latency (Avg Rsp Lat) [1, 3]: 2342.3 ms
- Eventual Correct, 2 Stimuli [1, 3]: 98.1%
- Eventual Correct, 4 Stimuli [1, 3]: 50.3%
- Eventual Correct, Overall Mean % Correct [1, 3]: 76.1%
- Initial Correct, 3 Stimuli [1, 3]: 46.2%
- Initial Correct, 4 Stimuli [1, 3]: 19.5%
- Initial correct, 2 Stimuli [1, 3]: 84.3%
- % Completion [1, 4]: 83.8%
- Average Response Latency (Avg rsp lat) [1, 4]: 1934.6 ms
- Eventual Correct, 2 Stimuli [1, 4]: 99.7%
- Eventual Correct, 3 Stimuli [1, 4]: 98.0%
- Eventual Correct, Overall Mean % Correct [1, 4]: 92.3%
- Initial Correct, 3 Stimuli [1, 4]: 70.0%
- Initial Correct, Overall Mean % Correct [1, 4]: 65.4%
- Initial correct, 2 Stimuli [1, 4]: 87.2%
- % Completion [1, 5]: 78.0%
- Average Response Latency [1, 5]: 2407.4 ms
- Eventual Correct, 2 Stimuli [1, 5]: 97.1%
- Eventual Correct, 4 Stimuli [1, 5]: 46.8%
- Eventual Correct, Overall Mean % Correct [1, 5]: 74.6%
- Initial Correct, 3 Stimuli [1, 5]: 49.2%
- Average Response Latency (Avg rsp lat) [1, 6]: 2021.60 ms
- Eventual Correct, 2 Stimuli [1, 6]: 99.5%
- Eventual Correct, 3 Stimuli [1, 6]: 95.7%
- Eventual Correct, 4 Stimuli [1, 6]: 65.7%
- Eventual Correct, Overall Mean % Correct [1, 6]: 87.7%
- Initial Correct, 3 Stimuli [1, 6]: 66.2%
- Initial Correct, 4 Stimuli [1, 6]: 34.6%
- Initial Correct, Overall Mean % Correct [1, 6]: 64.9%
- Initial correct, 2 Stimuli [1, 6]: 91.9%
- Percent Correct on Initial Attempt (SEM), 2 stimuli ([1]; BMS-933043 study): 89.6% (1.8%)
- Percent Correct on Initial Attempt (SEM), 3 stimuli ([1]; BMS-933043 study): 67.0% (5.0%)
- Percent Correct on Initial Attempt (SEM), 4 stimuli ([1]; BMS-933043 study): 37.3% (7.4%) ††
- Percent Correct on Initial Attempt (SEM), 2 stimuli ([1]; EVP-6124 study 1): 87.3% (4.0%)
- Percent Correct on Initial Attempt (SEM), 3 stimuli ([1]; EVP-6124 study 1): 70.0% (3.4%) ††
- Percent Correct on Initial Attempt (SEM), 4 stimuli ([1]; EVP-6124 study 1): 38.8% (4.0%) ††
- Percent Correct on Initial Attempt (SEM), 2 stimuli ([1]; EVP-6124 study 2): 91.9% (3.6%)
- Percent Correct on Initial Attempt (SEM), 3 stimuli ([1]; EVP-6124 study 2): 66.2% (7.6%) †
- Percent Correct on Initial Attempt (SEM), 4 stimuli ([1]; EVP-6124 study 2): 34.6% (4.2%) ††
- Percent Correct on Initial Attempt (SEM), 2 stimuli ([1]; RG3487 study): 84.3% (2.8%)
- Percent Correct on Initial Attempt (SEM), 3 stimuli ([1]; RG3487 study): 46.2% (8.0%) ††
- Percent Correct on Initial Attempt (SEM), 4 stimuli ([1]; RG3487 study): 19.5% (4.9%) ††
- Percent Correct on Initial Attempt (SEM), 2 stimuli ([1]; donepezil study): 79.6% (5.3%)
- Percent Correct on Initial Attempt (SEM), 3 stimuli ([1]; donepezil study): 49.2% (6.5%) †
- Percent Correct on Initial Attempt (SEM), 4 stimuli ([1]; donepezil study): 25.8% (4.5%) ††
- mean (cohen's d calculations) ([1]; scop+vehicle, donepezil study): 46.8
- mean (cohen's d calculations) ([1]; veh+scop, BMS-933043 study): 65.7
- mean (cohen's d calculations) ([1]; vehicle+scop, EVP-6124 study 2): 65.7
- Eventual Correct, 2 Stimuli (cynomolgus monkeys; [7]): 100.0%
- Eventual Correct, 3 Stimuli (cynomolgus monkeys; [7]): 100.0%
- Eventual Correct, 4 Stimuli (cynomolgus monkeys; [7]): 90.0%
- Eventual Correct, Overall Mean % Correct (cynomolgus monkeys; [7]): 96.7%
- Initial Correct, 3 Stimuli (cynomolgus monkeys; [7]): 68.7%
- Initial Correct, 4 Stimuli (cynomolgus monkeys; [7]): 57.5%
- Initial Correct, Overall Mean % Correct (cynomolgus monkeys; [7]): 74.2%
- Initial correct, 2 Stimuli (cynomolgus monkeys; [7]): 96.3%
- % Completion (cynomolgus monkeys; [8]): 63.0% and 97.0% and 100.0% and 84.0%
- Average Response Latency, ms (Avg Rsp Lat) (cynomolgus monkeys; [8]): 6153.3 ms and 1831.0 ms and 1549.1 ms and 1787.2 ms and 2129.2 ms and 2342.9 ms and 2289.1 ms and 1548.2 ms
- Eventual Correct, 2 Stimuli (cynomolgus monkeys; [8]): 100.0%
- Eventual Correct, 3 Stimuli (cynomolgus monkeys; [8]): 100.0%
- Eventual Correct, 4 Stimuli (cynomolgus monkeys; [8]): 90.0% and 100.0%
- Eventual Correct, Overall Mean % Correct (cynomolgus monkeys; [8]): 93.3% and 96.7% and 100.0%
- Initial Correct, 3 Stimuli (cynomolgus monkeys; [8]): 70.0% and 100.0% and 40.0% and 60.0%
- Initial Correct, 4 Stimuli (cynomolgus monkeys; [8]): 30.0% and 70.0% and 100.0% and 50.0% and 60.0%
- Initial Correct, Overall Mean % Correct (cynomolgus monkeys; [8]): 63.3% and 100.0% and 73.3% and 66.7% and 70.0% and 76.7%
- Initial correct, 2 Stimuli (cynomolgus monkeys; [8]): 90.0% and 100.0%
- Eventual Correct, 2 Stimuli (cynomolgus monkeys; [9]): 95.0%
- Eventual Correct, 3 Stimuli (cynomolgus monkeys; [9]): 84.3%
- Eventual Correct, 4 Stimuli (cynomolgus monkeys; [9]): 51.1%
- Eventual Correct, Overall Mean % Correct (cynomolgus monkeys; [9]): 76.8%
- Initial Correct, 3 Stimuli (cynomolgus monkeys; [9]): 54.3%
- Initial Correct, 4 Stimuli (cynomolgus monkeys; [9]): 32.8%
- % Completion (cynomolgus monkeys; [10]): 21.0% and 62.0% and 51.0% and 97.0% and 88.0% and 91.0% and 34.5%
- Average Response Latency, ms (Avg Rsp Lat) (cynomolgus monkeys; [10]): 1881.3 ms and 2302.7 ms and 2706.5 ms and 2004.6 ms and 2231.8 ms and 2896.7 ms and 2108.4 ms and 1817.8 ms
- Eventual Correct, 2 Stimuli (cynomolgus monkeys; [10]): 60.0% and 100.0%
- Eventual Correct, 3 Stimuli (cynomolgus monkeys; [10]): 100.0% and 50.0% and 90.0% and 70.0%
- Eventual Correct, 4 Stimuli (cynomolgus monkeys; [10]): 50.0% and 16.7% and 70.0% and 0.0% and 90.0%
- Eventual Correct, Overall Mean % Correct (cynomolgus monkeys; [10]): 83.3% and 55.6% and 86.7% and 90.0% and 56.7% and 96.7%
- Initial Correct, 3 Stimuli (cynomolgus monkeys; [10]): 70.0% and 40.0% and 20.0% and 60.0% and 50.0%
- Initial Correct, 4 Stimuli (cynomolgus monkeys; [10]): 30.0% and 16.7% and 50.0% and 0.0% and 60.0%
- Initial Correct, Overall Mean % Correct (cynomolgus monkeys; [10]): 26.0% and 63.3% and 76.7% and 53.3%
- Initial correct, 2 Stimuli (cynomolgus monkeys; [10]): 50.0% and 90.0% and 100.0%
- Eventual Correct, 2 Stimuli (cynomolgus monkeys; [11]): 96.3%
- Eventual Correct, 4 Stimuli (cynomolgus monkeys; [11]): 36.8%
- Eventual Correct, Overall Mean % Correct (cynomolgus monkeys; [11]): 68.5%
- Initial Correct, 3 Stimuli (cynomolgus monkeys; [11]): 47.8%
- Initial Correct, 4 Stimuli (cynomolgus monkeys; [11]): 20.1%
- % Completion (cynomolgus monkeys; [12]): 63.6% and 78.0% and 52.6% and 100.0% and 43.5% and 50.8% and 31.0%
- Average Response Latency, ms (Avg Rsp Lat) (cynomolgus monkeys; [12]): 3290.4 ms and 1872.3 ms and 1904.8 ms and 2135.7 ms and 2272.7 ms and 2295.1 ms and 2067.4 ms and 1369.7 ms
- Eventual Correct, 2 Stimuli (cynomolgus monkeys; [12]): 100.0% and 90.0% and 80.0%
- Eventual Correct, 3 Stimuli (cynomolgus monkeys; [12]): 100.0% and 60.0% and 90.0% and 14.3%
- Eventual Correct, 4 Stimuli (cynomolgus monkeys; [12]): 44.4% and 25.0% and 0.0%
- Eventual Correct, Overall Mean % Correct (cynomolgus monkeys; [12]): 81.5% and 75.0% and 53.3% and 89.3%
- Initial Correct, 3 Stimuli (cynomolgus monkeys; [12]): 50.0% and 70.0% and 90.0% and 30.0% and 0.0% and 12.5%
- Initial Correct, 4 Stimuli (cynomolgus monkeys; [12]): 33.3% and 25.0% and 0.0% and 22.2%
- Initial Correct, Overall Mean % Correct (cynomolgus monkeys; [12]): 68.3% and 36.7% and 60.7% and 26.7% and 20.9% and 53.4%
- Initial correct, 2 Stimuli (cynomolgus monkeys; [12]): 90.0% and 60.0% and 30.0%
